In ChEMBL document CHEMBL2203143, “Synthesis and antiproliferative activities of ottelione a analogues” (ACS Med Chem Lett, 2012):
pIC50: −log10 of the molar value. The source made the active and inactive calls. The rule behind the calls is not given here.

Assays:
A-375 = assay: Antiproliferative activity against human A375 cells assessed as cell viability after 72 hrs by CellTiter96 assay; type: functional, cell-based; conditions: A-375, 72 h
NCI-H460 [1] = assay: Antiproliferative activity against human NCI-H460 cells assessed as cell viability after 72 hrs by CellTiter96 assay; type: functional, cell-based; conditions: NCI-H460, 72 h
KB = assay: Antiproliferative activity against human KB cells assessed as cell viability after 72 hrs by CellTiter96 assay; type: functional, cell-based
MCF7 [2] = assay: Antiproliferative activity against human MCF7 cells assessed as cell viability after 72 hrs by CellTiter96 assay; type: functional, cell-based; conditions: MCF7, 72 h
COLO 205 [3] = assay: Antiproliferative activity against human COLO205 cells assessed as cell viability after 72 hrs by CellTiter96 assay; type: functional, cell-based; conditions: COLO 205, 72 h
HCT-116 = assay: Antiproliferative activity against human HCT116 cells assessed as cell viability after 72 hrs by CellTiter96 assay; type: functional, cell-based; conditions: HCT-116, 72 h
Tubulin (Sus scrofa) [4] = biological target: T1, Tubulin (Sus scrofa) (UniProt P02554+P02550); assay: Displacement of [3H]colchicine from tubulin in pig brain at 10 uM after 16 hrs by scintillation proximity assay
Tubulin (Sus scrofa) [5] = biological target: T1, Tubulin (Sus scrofa); assay: Inhibition of pig neuronal tubulin polymerization at 10 uM by fluorescence analysis; type: protein assay
MCF7 [6] = assay: Ratio of ottelione A IC50 to compound IC50 for human MCF7 cells after 72 hrs by CellTiter96 assay; type: functional
NCI-H460 [7] = assay: Ratio of ottelione A IC50 to compound IC50 for human NCI-H460 cells after 72 hrs by CellTiter96 assay; type: functional
COLO 205 [8] = assay: Ratio of ottelione A IC50 to compound IC50 for human COLO205 cells after 72 hrs by CellTiter96 assay; type: functional

T1 sequence (P02550 whole entry, looked up): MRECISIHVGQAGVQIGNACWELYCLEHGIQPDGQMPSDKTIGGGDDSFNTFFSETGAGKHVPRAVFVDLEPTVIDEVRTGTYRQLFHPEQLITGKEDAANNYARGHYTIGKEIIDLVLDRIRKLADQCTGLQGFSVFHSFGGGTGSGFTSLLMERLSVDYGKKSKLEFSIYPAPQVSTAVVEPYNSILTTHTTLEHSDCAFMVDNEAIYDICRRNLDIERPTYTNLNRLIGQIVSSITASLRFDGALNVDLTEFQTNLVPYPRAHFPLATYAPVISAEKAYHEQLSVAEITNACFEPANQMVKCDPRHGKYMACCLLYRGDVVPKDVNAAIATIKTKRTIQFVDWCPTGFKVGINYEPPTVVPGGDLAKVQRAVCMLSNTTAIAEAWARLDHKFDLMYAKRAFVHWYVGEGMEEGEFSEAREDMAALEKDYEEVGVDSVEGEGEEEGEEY
T1 sequence (P02554 whole entry, looked up): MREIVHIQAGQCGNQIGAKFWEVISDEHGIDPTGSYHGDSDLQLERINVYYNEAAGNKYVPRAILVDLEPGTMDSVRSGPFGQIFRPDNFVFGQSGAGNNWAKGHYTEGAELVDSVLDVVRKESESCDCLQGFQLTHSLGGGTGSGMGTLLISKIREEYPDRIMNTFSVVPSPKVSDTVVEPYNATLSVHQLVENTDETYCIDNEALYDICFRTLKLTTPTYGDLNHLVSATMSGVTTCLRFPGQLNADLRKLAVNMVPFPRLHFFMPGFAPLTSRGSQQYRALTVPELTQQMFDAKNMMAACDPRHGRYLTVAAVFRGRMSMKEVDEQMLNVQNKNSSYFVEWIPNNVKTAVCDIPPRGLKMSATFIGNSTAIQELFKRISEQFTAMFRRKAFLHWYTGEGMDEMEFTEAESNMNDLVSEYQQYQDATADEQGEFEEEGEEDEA

Row | Structure (SMILES) | pIC50 (A-375) | pIC50 (NCI-H460 [1]) | pIC50 (KB) | pIC50 (MCF7 [2]) | pIC50 (COLO 205 [3]) | pIC50 (HCT-116) | inhibition (Tubulin (Sus scrofa) [4]) [%] | inhibition (Tubulin (Sus scrofa) [5]) | Ratio IC50 (MCF7 [6]) | Ratio IC50 (NCI-H460 [7]) | Ratio IC50 (COLO 205 [8])
1 | C=C1C=CC(=O)[C@@H]2[C@H](Cc3ccc(OCOC)cc3)CC[C@H]12 (racemic) | 7.11 | 6.65 | 6.68 | 7.20 | 6.66 | 6.89 | 69.3 |  |  |  | 
2 | C=C1C=CC(=O)[C@@H]2[C@H](Cc3ccc(OCOC)c(F)c3)CC[C@H]12 (racemic) | 7.40 | 6.97 | 7.12 | 7.11 | 7.12 | 7.11 | 68.9 |  |  |  | 
3 | C=C1C=CC(=O)[C@@H]2[C@H](Cc3ccc(F)c(F)c3)CC[C@H]12 (racemic) | 6.65 | 6.29 | 6.32 | 6.63 | 6.37 | 6.63 | 61.7 |  |  |  | 
4 | C=C1C=CC(=O)[C@@H]2[C@H](Cc3ccc(OC)c(O)c3)CC[C@H]12 (racemic) | 8.97 | 7.79 | 8.31 | 8.43 | 6.61 | 8.52 | 95.8 | Active |  |  | 
5 | COc1ccc(C[C@@H]2CC[C@@H]3CC=CC(=O)[C@@H]32)cc1O (racemic) | 6.04 | < 6.00 | < 6.00 | < 6.00 | < 6.00 | < 6.00 | 39.2 |  |  |  | 
6 | CC=C1C=CC(=O)[C@@H]2[C@H](Cc3ccc(OC)c(O)c3)CC[C@H]12 (racemic) | 8.04 | 7.61 | 7.65 | 7.58 | 6.13 | 7.85 | 96.1 |  |  |  | 
7 | C=C1C=CC(=O)[C@@H]2[C@H](Cc3ccccc3)CC[C@H]12 (racemic) | 6.63 | 6.17 | 6.23 | 6.59 | 6.26 | 6.59 | 43.2 |  |  |  | 
8 | C=C1C=CC(=O)[C@@H]2[C@H](Cc3ccc(O)cc3)CC[C@H]12 (racemic) | 7.51 | 7.11 | 7.16 | 7.47 | 6.66 | 7.41 | 71.6 |  |  |  | 

Continued, in another order:

Row | pIC50 (A-375) | pIC50 (NCI-H460 [1]) | pIC50 (KB) | pIC50 (MCF7 [2]) | pIC50 (COLO 205 [3]) | pIC50 (HCT-116) | inhibition (Tubulin (Sus scrofa) [4]) [%] | inhibition (Tubulin (Sus scrofa) [5]) | Structure (SMILES) | Ratio IC50 (MCF7 [6]) | Ratio IC50 (NCI-H460 [7]) | Ratio IC50 (COLO 205 [8])
9 | < 6.00 | < 6.00 | < 6.00 | < 6.00 | < 6.00 | < 6.00 | 8.93 |  | C=C1C=CC(=O)[C@@H]2[C@H](Cc3cc(OC)c(OC)c(OC)c3)CC[C@H]12 (racemic) |  |  | 
10 | 7.01 | 6.64 | 6.81 | 6.83 | 5.52 | 6.90 | 37.3 |  | C=C1C=CC(=O)[C@@H]2[C@H](Cc3ccc(O)c(F)c3)CC[C@H]12 (racemic) |  |  | 
11 | 8.77 | 8.58 | 8.56 | 9.89 | 8.61 | 8.95 | 97.1 | Active | C=C1C=CC(=O)[C@@H]2[C@H](Cc3ccc(OC)c(F)c3)CC[C@H]12 (racemic) | 6 | 6 | 6
12 | 9.40 | 7.84 | 8.80 | 8.93 | 7.03 | 9.13 | 98.3 | Active | C=C[C@@H]1C[C@@H](Cc2ccc(OC)c(O)c2)[C@H]2C(=O)C=CC(=C)[C@H]21 (racemic) |  |  | 
